Measurements from PubChem BioAssay (NCI).
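Where inhibition never reached the appropriate level, the endpoint shown equals the highest concentration tested. Otherwise, values were interpolated linearly from a five-concentration, 48-hour dose response in 96-well plates. The concentration for full growth arrest is given as TGI.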 Where a SMILES comes first, the peptide text is derived from it. [ ]: non-standard residue; d: D form. The star is where a group is joined. ξ: configuration not given here. NMeY = CN[C@@H](Cc1ccc(O)cc1)C(=O)O; Cbz = O=C(OCc1ccccc1)*; ξA = CC(N)C(=O)O

Tests used:
Assay in all cases: NCI tumour cell line growth inhibition, 48 h
A498 renal = system: A498 renal
CAKI-1 renal = system: CAKI-1 renal
COLO 205 colon = system: COLO 205 colon
EKVX NSCLC = system: EKVX NSCLC
MCF7 breast = system: MCF7 breast
NCI-H460 lung = system: NCI-H460 lung
OVCAR-4 ovarian = system: OVCAR-4 ovarian
SF-295 CNS = system: SF-295 CNS
SN12C renal = system: SN12C renal
T-47D breast = system: T-47D breast

Cc1[nH]c(=O)nc(N/N=C/c2ccc(Cl)c(Cl)c2)c1C(=O)Nc1ccc(Cl)c(Cl)c1
TGI (A498 renal): 7.92 µM
TGI (CAKI-1 renal): 33.3 µM
TGI (COLO 205 colon): > 44.1 µM
TGI (EKVX NSCLC): > 100 µM
TGI (MCF7 breast): 57 µM
TGI (NCI-H460 lung): > 49.6 µM
TGI (OVCAR-4 ovarian): 11 µM
TGI (SF-295 CNS): > 30.7 µM
TGI (SN12C renal): > 46.5 µM
TGI (T-47D breast): 72 µM

CCOC(=O)CCC(NC(=O)OCc1ccccc1)C(=O)NNC(=O)OC(C)(C)C (stereo not drawn)
TGI (A498 renal): > 100 µM
TGI (CAKI-1 renal): > 100 µM
TGI (COLO 205 colon): > 100 µM
TGI (EKVX NSCLC): > 100 µM
TGI (MCF7 breast): > 100 µM
TGI (NCI-H460 lung): > 100 µM
TGI (OVCAR-4 ovarian): > 100 µM
TGI (SF-295 CNS): > 100 µM
TGI (SN12C renal): > 100 µM
TGI (T-47D breast): > 100 µM

CC(=O)Oc1ccc2cc(Oc3ccc(Cl)cc3)c(=O)oc2c1
TGI (A498 renal): > 100 µM
TGI (CAKI-1 renal): > 100 µM
TGI (EKVX NSCLC): > 100 µM
TGI (MCF7 breast): > 100 µM
TGI (NCI-H460 lung): > 100 µM
TGI (OVCAR-4 ovarian): > 100 µM
TGI (SF-295 CNS): 99 µM
TGI (SN12C renal): > 100 µM
TGI (T-47D breast): > 100 µM

COc1ccc(C[C@@H](C(=O)NCC(N)=O)N(C)C(=O)[C@@H]2CCCN2C(=O)[C@H](CC(C)C)NC(=O)C(C)NC(=O)OCc2ccccc2)cc1 (stereo partly drawn) (Cbz-[ξA]LP[NMeY](Me)G-NH2)
TGI (A498 renal): > 100 µM
TGI (CAKI-1 renal): > 100 µM
TGI (COLO 205 colon): > 100 µM
TGI (EKVX NSCLC): > 100 µM
TGI (MCF7 breast): > 100 µM
TGI (NCI-H460 lung): > 100 µM
TGI (OVCAR-4 ovarian): > 100 µM
TGI (SF-295 CNS): > 100 µM
TGI (SN12C renal): > 100 µM
TGI (T-47D breast): > 100 µM

CCCCn1cc(C(=O)O)c(=O)c2c3sccc3ccc21
TGI (A498 renal): > 100 µM
TGI (CAKI-1 renal): > 100 µM
TGI (COLO 205 colon): > 100 µM
TGI (EKVX NSCLC): > 100 µM
TGI (MCF7 breast): > 100 µM
TGI (NCI-H460 lung): > 100 µM
TGI (OVCAR-4 ovarian): > 100 µM
TGI (SF-295 CNS): > 100 µM
TGI (SN12C renal): > 100 µM
TGI (T-47D breast): > 100 µM

CC1(C)OC[C@@H](/C=C\CCO[Si](c2ccccc2)(c2ccccc2)C(C)(C)C)N1C(=O)c1ccccc1
TGI (A498 renal): 44.8 µM
TGI (CAKI-1 renal): > 100 µM
TGI (COLO 205 colon): 21.9 µM
TGI (EKVX NSCLC): 25.8 µM
TGI (MCF7 breast): 24.4 µM
TGI (NCI-H460 lung): 17.3 µM
TGI (OVCAR-4 ovarian): > 100 µM
TGI (SF-295 CNS): > 100 µM
TGI (SN12C renal): 29.9 µM
TGI (T-47D breast): > 100 µM

O=C(Nc1cccc2nsnc12)c1cc2c(cc1Cl)Sc1nccn1S2(=O)=O
TGI (A498 renal): 26.5 µM
TGI (CAKI-1 renal): 25.7 µM
TGI (COLO 205 colon): 33.3 µM
TGI (EKVX NSCLC): 11.1 µM
TGI (MCF7 breast): 3.4 µM
TGI (NCI-H460 lung): 5.98 µM
TGI (OVCAR-4 ovarian): 15.6 µM
TGI (SF-295 CNS): 28.2 µM
TGI (SN12C renal): 31.1 µM
TGI (T-47D breast): 7.04 µM

CCCCCCCCCCCCOC1C(COCCN2CCCC2)OC2OC(C)(C)OC21 (stereo not drawn)
TGI (A498 renal): 27.9 µM
TGI (CAKI-1 renal): 3.04 µM
TGI (COLO 205 colon): 3.22 µM
TGI (EKVX NSCLC): 10.2 µM
TGI (MCF7 breast): 3.1 µM
TGI (OVCAR-4 ovarian): 7.6 µM
TGI (SF-295 CNS): 3.28 µM
TGI (SN12C renal): 3.24 µM
TGI (T-47D breast): 4.11 µM

Cc1cc(S(=O)(=O)Nc2n[nH]c(Nc3ccccc3)n2)c(S)cc1Cl
TGI (A498 renal): > 10 µM
TGI (CAKI-1 renal): > 10 µM
TGI (COLO 205 colon): > 10 µM
TGI (EKVX NSCLC): > 10 µM
TGI (MCF7 breast): > 10 µM
TGI (NCI-H460 lung): > 10 µM
TGI (OVCAR-4 ovarian): > 10 µM
TGI (SF-295 CNS): > 10 µM
TGI (SN12C renal): > 10 µM
TGI (T-47D breast): > 10 µM

O=C1c2cc3c(cc2CC12Cc1cc4c(cc1C2)CCC4)CCC3
TGI (A498 renal): > 100 µM
TGI (CAKI-1 renal): > 100 µM
TGI (COLO 205 colon): > 100 µM
TGI (EKVX NSCLC): > 100 µM
TGI (MCF7 breast): > 100 µM
TGI (NCI-H460 lung): > 100 µM
TGI (OVCAR-4 ovarian): > 100 µM
TGI (SF-295 CNS): > 100 µM
TGI (SN12C renal): > 100 µM
TGI (T-47D breast): > 100 µM
